According to patent US20150105252A1, “SUBSTITUTED PYRAZOLES AS HERBICIDES” (E I DU PONT DE NEMOURS AND COMPANY, priority 2013, published 2015):

Key:
barley = experiment: Test C postemergence; type: in vivo, Hordeum vulgare; settings: scale 0 to 100
nightshade = experiment: Test C preemergence; type: in vivo, Solanum ptycanthum; settings: for Plant response rating (scale of 0 to 100), Nightshade: Preemergence, 250 g ai/ha; for Nightshade plant response rating / Plant response rating, Nightshade: preemergence; for Plant response rating, Nightshade: 62 g ai/ha, scale 0 to 100, 0 = no effect, 100 = complete control
Excerpt: Seeds of plant species selected from blackgrass (Alopecurus myosuroides), ryegrass, Italian (Italian ryegrass, Lolium multiflorum), wheat (winter wheat, Triticum aestivum), galium (catchweed bedstraw, Galium aparine), corn (Zea mays), crabgrass, large (large crabgrass, Digitaria sanguinalis), foxtail, giant (giant foxtail, Setaria faberii), johnsongrass (Sorghum halepense), lambsquarters (Chenopodium album), morningglory (Ipomoea coccinea), nutsedge, yellow (yellow nutsedge, Cyperus esculentus), pigweed (redroot pigweed, Amaranthus retroflexus), ragweed (common ragweed, Ambrosia elation), soybean (Glycine max), barnyardgrass (Echinochloa crus-galli), oilseed rape (Brassica napus), waterhemp (common waterhemp, Amaranthus rudis), oat, wild (wild oat, Avena fatua), kochia (Kochia scoparia), Surinam grass (Brachiaria decumbens), foxtail, green (green foxtail, Setaria viridis), goosegrass (Eleusine indica), bromegrass, downy (downy bromegrass, Bromus tectorum), nightshade (eastern black nightshade, Solanum ptycanthum), cocklebur (common cocklebur, Xanthium strumarium), cupgrass, woolly (woolly cupgrass, Eriochloa villosa), bermudagrass (Cynodon dactylon), sunflower, (common oilseed sunflower, Helianthus annuus), Russian thistle (Salsola kali), and velvetleaf (Abutilon theophrasti) were planted into a blend of loam soil and sand and treated preemergence with test chemicals formulated in a non-phytotoxic solvent mixture which included a surfactant.
At the same time, plants selected from these crop and weed species and also chickweed (common chickweed, Stellaria media), canarygrass (littleseed canarygrass, Phalaris minor), and deadnettle (henbit deadnettle, Lamium amplexicaule), were planted in pots containing Redi-Earth® planting medium (Scotts Company, 14111 Scottslawn Road, Marysville, Ohio 43041) comprising spaghnum peat moss, vermiculite, wetting agent and starter nutrients and treated with postemergence applications of test chemicals formulated in the same manner. Plants ranged in height from 2 to 18 cm (1- to 4-leaf stage) for postemergence treatments. Treated plants and controls were maintained in a greenhouse for 13 to 15 days, after which time all species were compared to controls and visually evaluated. Plant response ratings, summarized in Table C, are based on a scale of 0 to 100 where 0 is no effect and 100 is complete control. A dash (-) response means no test result.

corn = experiment: Test F preemergence; type: in vivo, Zea mays
Excerpt: (§1) Seeds of plant species selected from corn (Zea mays), soybean (Glycine max), velvetleaf (Abutilon theophrasti), lambsquarters (Chenopodium album), wild poinsettia (Euphorbia heterophylla), pigweed, palmer (palmer pigweed, Amaranthus palmeri), common waterhemp (Amaranthus rudis), surinam grass (Brachiaria decumbens), large crabgrass (Digitaria sanguinalis), crabgrass, Brazil (Brazilian crabgrass, Digitaria horizontalis), fall panicum (Panicum dichotomiflorum), giant foxtail (Setaria faberii), green foxtail (Setaria viridis), goosegrass (Eleusine indica), johnsongrass (Sorghum halepense), common ragweed (Ambrosia elation), barnyardgrass (Echinochloa crus-galli), southern sandbur (Cenchrus echinatus), arrowleaf sida (Sida rhombifolia), Italian ryegrass (Lolium multiflorum), dayflower, VA (Virginia (VA) dayflower, Commelina virginica), field bindweed (Convolvulus arvensis), cocklebur (common cocklebur, Xanthium strumarium), morningglory (Ipomoea coccinea), nightshade (eastern black nightshade, Solanum ptycanthum), kochia (Kochia scoparia), yellow nutsedge (Cyperus esculentus), and hairy beggarticks (Bidens pilosa), were planted into a silt loam soil and treated preemergence with test chemicals formulated in a non-phytotoxic solvent mixture which included a surfactant.
(§2) At the same time, plants from these crop and weed species and also horseweed (Canada horseweed, Conyza canadensis), smartweed (ladysthumb smartweed, Polygonum persicaria), waterhemp_RES1, (ALS & Triazine resistant common waterhemp, Amaranthus rudis), and waterhemp_RES2, (ALS & HPPD resistant common waterhemp, Amaranthus rudis) were treated with postemergence applications of test chemicals formulated in the same manner. Plants ranged in height from 2 to 18 cm for postemergence treatments (1- to 4-leaf stage). Treated plants and controls were maintained in a greenhouse for 14 to 21 days, after which time all species were compared to controls and visually evaluated. Plant response ratings, summarized in Table F, are based on a scale of 0 to 100 where 0 is no effect and 100 is complete control. A dash (-) response means no test result.

pigweed, palmer = experiment: Test F preemergence; type: in vivo, Amaranthus palmeri
Excerpt: as §1, §2

crabgrass, Brazil = experiment: Test F preemergence; type: in vivo, Digitaria horizontalis
Excerpt: as §1, §2

johnsongrass = experiment: Test F preemergence; type: in vivo, Sorghum halepense
Excerpt: as §1, §2

common ragweed = experiment: Test F preemergence; type: in vivo, Ambrosia elation
Excerpt: as §1, §2

arrowleaf sida = experiment: Test F preemergence; type: in vivo, Sida rhombifolia
Excerpt: as §1, §2

yellow nutsedge = experiment: Test F preemergence; type: in vivo, Cyperus esculentus
Excerpt: as §1, §2

[1] = 31 g ai/ha, scale 0 to 100 (0 no effect, 100 complete control), 13 to 15 days
[2] = 125 g ai/ha, scale 0 to 100, 0 is no effect, 100 is complete control
[3] = Preemergence, 31 g ai/ha, scale 0 to 100
[4] = Preemergence, 62 g ai/ha, scale 0 to 100
[5] = Preemergence, 125 g ai/ha, scale 0 to 100
[6] = preemergence, 8 g ai/ha, scale 0 to 100, 100 is complete control
[7] = preemergence, 16 g ai/ha, scale 0 to 100, 100 is complete control
[8] = Preemergence, 250 g ai/ha, scale 0 to 100
[9] = Preemergence, 16 g ai/ha, scale 0 to 100

Structure (SMILES): CCc1cc(C(=O)NCC(F)(F)F)nn1Cc1cccc(OC(F)(F)F)c1 [Compound 20]
- Barley plant response rating (barley; Postemergence, 31 g ai/ha): 15

Structure (SMILES): CCCNC(=O)c1cc(CC)n(Cc2cccc(OC(F)(F)F)c2)n1 [Compound 27]
- Barley plant response rating (barley; Postemergence, 31 g ai/ha): 10

Structure (SMILES): CCc1cc(C(=O)NOC(C)C)nn1Cc1cccc(OC(F)(F)F)c1 [Compound 70]
- Plant response rating (scale of 0 to 100), Nightshade (nightshade): 98
- Nightshade plant response rating (nightshade; [1]): 70
- Plant response rating, Nightshade (nightshade; 13 to 15 days): 98
- Nightshade plant response rating (nightshade; [2]): 98
- Barley plant response rating (barley; Postemergence, 31 g ai/ha): 0

Structure (SMILES): CCONC(=O)c1cc(CC)n(Cc2cccc(OC(F)(F)F)c2)n1 [Compound 72]
- Plant response rating (scale of 0 to 100), Nightshade (nightshade): 100
- Nightshade plant response rating (nightshade; [1]): 75
- Plant response rating, Nightshade (nightshade; 13 to 15 days): 98
- Nightshade plant response rating (nightshade; [2]): 98
- Barley plant response rating (barley; Postemergence, 31 g ai/ha): 0
- Barley plant response rating (barley; postemergence, 62 g ai/ha): 5

Structure (SMILES): Cc1cc(C(=O)NCC(F)(F)F)nn1Cc1ccnc(C(F)(F)F)c1 [Compound 74]
- Plant response rating (scale of 0 to 100), Nightshade (nightshade): 98
- Nightshade plant response rating (nightshade; [1]): 90
- Plant response rating, Nightshade (nightshade; 13 to 15 days): 90
- Nightshade plant response rating (nightshade; [2]): 95
- Barley plant response rating (barley; Postemergence, 31 g ai/ha): 0
- Barley plant response rating (barley; postemergence, 62 g ai/ha): 0

Structure (SMILES): CCc1cc(-c2ccc(C(F)(F)F)cc2)nn1Cc1ccnc(C(F)(F)F)c1 [Compound 110]
- Plant response rating, Corn (corn; [3]): 0
- Plant response rating, Corn (corn; [4]): 0
- Plant response rating, Corn (corn; [5]): 15
- Plant response rating, Corn (corn; [6]): 0
- Plant response rating, Corn (corn; [7]): 0
- Plant response rating, Pigweed, Palmer (pigweed, palmer; [3]): 95
- Plant response rating, Pigweed, Palmer (pigweed, palmer; [4]): 100
- Plant response rating, Pigweed, Palmer (pigweed, palmer; [5]): 100
- Plant response rating, Pigweed, Palmer (pigweed, palmer; [6]): 70
- Plant response rating, Pigweed, Palmer (pigweed, palmer; [7]): 90
- Plant response rating, Crabgrass, Brazil (crabgrass, Brazil; [3]): 100
- Plant response rating, Crabgrass, Brazil (crabgrass, Brazil; [4]): 100
- Plant response rating, Crabgrass, Brazil (crabgrass, Brazil; [5]): 100
- Plant response rating, Crabgrass, Brazil (crabgrass, Brazil; [6]): 50
- Plant response rating, Crabgrass, Brazil (crabgrass, Brazil; [7]): 70
- Plant response rating, Johnsongrass (johnsongrass; [3]): 15
- Plant response rating, Johnsongrass (johnsongrass; [4]): 25
- Plant response rating, Johnsongrass (johnsongrass; [5]): 80
- Plant response rating, Johnsongrass (johnsongrass; [6]): 0
- Plant response rating, Johnsongrass (johnsongrass; [7]): 0
- Plant response rating, Common Ragweed (common ragweed; [3]): 25
- Plant response rating, Common Ragweed (common ragweed; [4]): 80
- Plant response rating, Common Ragweed (common ragweed; [5]): 90
- Plant response rating, Common Ragweed (common ragweed; [6]): 0
- Plant response rating, Common Ragweed (common ragweed; [7]): 0
- Plant response rating, Arrowleaf Sida (arrowleaf sida; [3]): 65
- Plant response rating, Arrowleaf Sida (arrowleaf sida; [4]): 80
- Plant response rating, Arrowleaf Sida (arrowleaf sida; [5]): 90
- Plant response rating, Arrowleaf Sida (arrowleaf sida; [6]): 35
- Plant response rating, Arrowleaf Sida (arrowleaf sida; [7]): 65
- Plant response rating, Yellow Nutsedge (yellow nutsedge; [3]): 0
- Plant response rating, Yellow Nutsedge (yellow nutsedge; [4]): 0
- Plant response rating, Yellow Nutsedge (yellow nutsedge; [5]): 0
- Plant response rating, Yellow Nutsedge (yellow nutsedge; [6]): 0
- Plant response rating, Yellow Nutsedge (yellow nutsedge; [7]): 0

Structure (SMILES): CCCc1cc(C(=O)NC(C)C)nn1Cc1cc(C(F)(F)F)nn1C [Compound 201]
- Plant response rating, Corn (corn; [4]): 10
- Plant response rating, Corn (corn; [5]): 20
- Plant response rating, Corn (corn; [8]): 60
- Plant response rating, Corn (corn; [7]): 0
- Plant response rating, Pigweed, Palmer (pigweed, palmer; [4]): 40
- Plant response rating, Pigweed, Palmer (pigweed, palmer; [5]): 65
- Plant response rating, Pigweed, Palmer (pigweed, palmer; [8]): 90
- Plant response rating, Pigweed, Palmer (pigweed, palmer; [7]): 0
- Plant response rating, Crabgrass, Brazil (crabgrass, Brazil; [9]): 75
- Plant response rating, Crabgrass, Brazil (crabgrass, Brazil; [4]): 95
- Plant response rating, Crabgrass, Brazil (crabgrass, Brazil; [5]): 100
- Plant response rating, Crabgrass, Brazil (crabgrass, Brazil; [8]): 100
- Plant response rating, Crabgrass, Brazil (crabgrass, Brazil; [7]): 0
- Plant response rating, Johnsongrass (johnsongrass; [4]): 25
- Plant response rating, Johnsongrass (johnsongrass; [5]): 80
- Plant response rating, Johnsongrass (johnsongrass; [8]): 95
- Plant response rating, Johnsongrass (johnsongrass; [7]): 0
- Plant response rating, Common Ragweed (common ragweed; [9]): 0
- Plant response rating, Common Ragweed (common ragweed; [4]): 0
- Plant response rating, Common Ragweed (common ragweed; [5]): 35
- Plant response rating, Common Ragweed (common ragweed; [8]): 65
- Plant response rating, Common Ragweed (common ragweed; [7]): 0
- Plant response rating, Arrowleaf Sida (arrowleaf sida; [9]): 0
- Plant response rating, Arrowleaf Sida (arrowleaf sida; [4]): 0
- Plant response rating, Arrowleaf Sida (arrowleaf sida; [5]): 0
- Plant response rating, Arrowleaf Sida (arrowleaf sida; [8]): 75
- Plant response rating, Arrowleaf Sida (arrowleaf sida; [7]): 0
- Plant response rating, Yellow Nutsedge (yellow nutsedge; [4]): 0
- Plant response rating, Yellow Nutsedge (yellow nutsedge; [5]): 0
- Plant response rating, Yellow Nutsedge (yellow nutsedge; [8]): 25
- Plant response rating, Yellow Nutsedge (yellow nutsedge; [7]): 0

Structure (SMILES): CCc1cc(C(=O)NCC(F)(F)F)nn1Cc1ccnc(Br)c1 [Compound 224]
- Plant response rating, Corn (corn; [4]): 0
- Plant response rating, Corn (corn; [5]): 20
- Plant response rating, Corn (corn; [8]): 40
- Plant response rating, Pigweed, Palmer (pigweed, palmer; [4]): 100
- Plant response rating, Pigweed, Palmer (pigweed, palmer; [5]): 100
- Plant response rating, Pigweed, Palmer (pigweed, palmer; [8]): 100
- Plant response rating, Crabgrass, Brazil (crabgrass, Brazil; [4]): 98
- Plant response rating, Crabgrass, Brazil (crabgrass, Brazil; [5]): 100
- Plant response rating, Crabgrass, Brazil (crabgrass, Brazil; [8]): 100
- Plant response rating, Johnsongrass (johnsongrass; [4]): 0
- Plant response rating, Johnsongrass (johnsongrass; [5]): 35
- Plant response rating, Johnsongrass (johnsongrass; [8]): 75
- Plant response rating, Common Ragweed (common ragweed; [4]): 0
- Plant response rating, Common Ragweed (common ragweed; [5]): 0
- Plant response rating, Common Ragweed (common ragweed; [8]): 60
- Plant response rating, Arrowleaf Sida (arrowleaf sida; [4]): 35
- Plant response rating, Arrowleaf Sida (arrowleaf sida; [5]): 30
- Plant response rating, Arrowleaf Sida (arrowleaf sida; [8]): 35
- Plant response rating, Yellow Nutsedge (yellow nutsedge; [4]): 0
- Plant response rating, Yellow Nutsedge (yellow nutsedge; [5]): 35
- Plant response rating, Yellow Nutsedge (yellow nutsedge; [8]): 35
